Experiments:
Type in all cases: in vivo
[1] = system: barnyardgrass (Echinochloa crus-galli); assay: Test B postemergence; conditions: 13 to 15 days
In short: (§1)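 Seeds were planted and sprayed preemergence with test chemical in a non-phytotoxic solvent mixture containing surfactant; postemergence plants (2 to 18 cm, 1- to 4-leaf stage) received the same formulation. Greenhouse hold 13 to 15 days, then visual rating versus untreated controls on a 0–100 scale (0 no effect, 100 complete control).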

corn (Zea mays) [2] = assay: Test B postemergence; conditions: 13 to 15 days
In short: as §1

[3] = system: wheat (Triticum aestivum); assay: Test B postemergence; conditions: 13 to 15 days
In short: as §1

wild oat (Avena fatua) = assay: Test B postemergence; conditions: 13 to 15 days
In short: as §1

Nightshade [4] = assay: Test C preemergence; conditions: scale 0 to 100, 0 no effect, 100 complete control
corn (Zea mays) [5] = assay: Test C preemergence; conditions: for Plant response rating, Corn: scale 0 to 100, 0 no effect, 100 complete control; for Plant response rating (0 to 100), Corn: preemergence, visual evaluation after 12 to 14 days
In short: (§2)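 Compounds in non-phytotoxic solvent with surfactant applied preemergence to planted seeds and postemergence to plants at 1- to 4-leaf stage (2–18 cm). Kept in greenhouse 12–14 days, then visually rated against controls on a 0 (no effect) to 100 (complete control) scale.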

[6] = system: johnsongrass (Sorghum halepense); assay: Test C preemergence; conditions: for Plant response rating, Johnsongrass: scale 0 to 100, 0 no effect, 100 complete control; for Plant response rating (0 to 100), Johnsongrass: preemergence, visual evaluation after 12 to 14 days
In short: as §2

kochia (Kochia scoparia) = assay: Test C preemergence; conditions: for Plant response rating, Kochia: scale 0 to 100, 0 no effect, 100 complete control; for Plant response rating (0 to 100), Kochia: preemergence, visual evaluation after 12 to 14 days
In short: as §2

[7] = system: lambsquarters (Chenopodium album); assay: Test C preemergence; conditions: for Plant response rating, Lambsquarters: scale 0 to 100, 0 no effect, 100 complete control
In short: as §2

[8] = system: pigweed (Amaranthus retroflexus); assay: Test C preemergence; conditions: for Plant response rating, Pigweed: scale 0 to 100, 0 no effect, 100 complete control
In short: as §2

soybean (Glycine max) = assay: Test C preemergence; conditions: for Plant response rating, Soybean: scale 0 to 100, 0 no effect, 100 complete control
In short: as §2

[9] = system: woolly cupgrass (Eriochloa villosa); assay: Test C preemergence; conditions: for Plant response rating, Cupgrass, Woolly: scale 0 to 100, 0 no effect, 100 complete control; for Plant response rating (0 to 100), Cupgrass, Woolly: preemergence, visual evaluation after 12 to 14 days
In short: as §2

[10] = system: yellow nutsedge (Cyperus esculentus); assay: Test C preemergence; conditions: for Plant response rating, Nutsedge: scale 0 to 100, 0 no effect, 100 complete control
In short: as §2

[11] = system: barnyardgrass (Echinochloa crus-galli); assay: Test C flooded paddy test; conditions: for Barnyardgrass plant response rating: Flooded Paddy, scale 0 to 100, 0 no effect, 100 complete control; for Plant response rating, Barnyardgrass: flooded paddy test, scale 0 to 100 (0 no effect, 100 complete control)
In short: (§3)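 Each species was cultivated to 2 leaves in flooded paddy pots, then treated. After a greenhouse period of 12–14 days, the plants were scored visually relative to controls from 0 (no effect) to 100 (complete control).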

[12] = system: duck salad (Heteranthera limosa); assay: Test C flooded paddy test; conditions: for Ducksalad plant response rating: Flooded Paddy, scale 0 to 100, 0 no effect, 100 complete control; for Plant response rating, Ducksalad: flooded paddy test, scale 0 to 100 (0 no effect, 100 complete control)
In short: as §3

rice (Oryza saliva) = assay: Test C flooded paddy test; conditions: for Rice plant response rating: Flooded Paddy, scale 0 to 100, 0 no effect, 100 complete control; for Plant response rating, Rice: flooded paddy test, scale 0 to 100 (0 no effect, 100 complete control)
In short: as §3

[13] = system: smallflower flatsedge (Cyperus difformis); assay: Test C flooded paddy test; conditions: for Flatsedge plant response rating: Flooded Paddy, scale 0 to 100, 0 no effect, 100 complete control; for Plant response rating, Flatsedge: flooded paddy test, scale 0 to 100 (0 no effect, 100 complete control)
In short: as §3

Nightshade [14] = assay: Test C preemergence; conditions: Rate 500 g/ha, visual evaluation after 12 to 14 days
Sunflower = assay: Test C preemergence; conditions: Rate 250 g/ha, scale 0 to 100, 0 no effect, 100 complete control
[15] = Rate 125 g/ha, scale 0 (no effect) to 100 (complete control)
[16] = Rate 500 g/ha, scale 0 to 100, 0 is no effect, 100 is complete control
[17] = preemergence, Rate 500 g/ha, visual evaluation after 12 to 14 days

CCC(C)c1ccn(C2CCN(c3cccc(OC(C)C)c3)C2=O)n1 (centres unmarked) [Compound 83]
Plant response rating, Barnyardgrass [1, 15]: 0 | Plant response rating, Barnyardgrass [1, 16]: 0 | Plant response rating, Corn (corn (Zea mays) [2]; [15]): 0 | Plant response rating, Corn (corn (Zea mays) [2]; [16]): 0 | Plant response rating, Wheat [3, 15]: 0 | Plant response rating, Wheat [3, 16]: 0 | Plant response rating, Wild Oat (wild oat (Avena fatua); [15]): 0 | Plant response rating, Wild Oat (wild oat (Avena fatua); [16]): 0 | Plant response rating, Nightshade (Nightshade [4]; Rate 62 g/ha): 0 | Plant response rating, Nightshade (Nightshade [4]; Rate 125 g/ha): 50 | Plant response rating, Nightshade (Nightshade [4]; Rate 250 g/ha): 60 | Plant response rating, Corn (corn (Zea mays) [5]; Rate 62 g/ha): 0 | Plant response rating, Corn (corn (Zea mays) [5]; Rate 125 g/ha): 0 | Plant response rating (0 to 100), Corn (corn (Zea mays) [5]; Rate 250 g/ha): 0 | Plant response rating (0 to 100), Corn (corn (Zea mays) [5]; Rate 500 g/ha): 10 | Plant response rating, Johnsongrass ([6]; Rate 62 g/ha): 20 | Plant response rating, Johnsongrass ([6]; Rate 125 g/ha): 30 | Plant response rating (0 to 100), Johnsongrass ([6]; Rate 250 g/ha): 30 | Plant response rating (0 to 100), Johnsongrass ([6]; Rate 500 g/ha): 30 | Plant response rating, Kochia (kochia (Kochia scoparia); Rate 62 g/ha): 60 | Plant response rating, Kochia (kochia (Kochia scoparia); Rate 125 g/ha): 90 | Plant response rating (0 to 100), Kochia (kochia (Kochia scoparia); Rate 250 g/ha): 90 | Plant response rating (0 to 100), Kochia (kochia (Kochia scoparia); Rate 500 g/ha): 100 | Plant response rating, Lambsquarters ([7]; Rate 62 g/ha): 100 | Plant response rating, Lambsquarters ([7]; Rate 125 g/ha): 100 | Plant response rating (0 to 100), Lambsquarters [7, 17]: 100 | Plant response rating, Lambsquarters ([7]; preemergence, Rate 250 g/ha): 100 | Plant response rating, Pigweed ([8]; Rate 125 g/ha): 50 | Plant response rating (0 to 100), Pigweed [8, 17]: 100 | Plant response rating, Pigweed ([8]; preemergence, Rate 250 g/ha): 100 | Plant response rating, Soybean (soybean (Glycine max); Rate 125 g/ha): 0 | Plant response rating (0 to 100), Soybean (soybean (Glycine max); [17]): 10 | Plant response rating, Soybean (soybean (Glycine max); preemergence, Rate 250 g/ha): 0 | Plant response rating, Cupgrass, Woolly ([9]; Rate 62 g/ha): 80 | Plant response rating, Cupgrass, Woolly ([9]; Rate 125 g/ha): 90 | Plant response rating (0 to 100), Cupgrass, Woolly ([9]; Rate 250 g/ha): 100 | Plant response rating (0 to 100), Cupgrass, Woolly ([9]; Rate 500 g/ha): 100 | Plant response rating, Nutsedge ([10]; Rate 62 g/ha): 0 | Plant response rating, Nutsedge ([10]; Rate 125 g/ha): 0 | Plant response rating (0 to 100), Nutsedge [10, 17]: 0 | Plant response rating, Nutsedge ([10]; preemergence, Rate 250 g/ha): 0 | Barnyardgrass plant response rating ([11]; Rate 250 g/ha): 70 | Barnyardgrass plant response rating ([11]; Rate 500 g/ha): 100 | Plant response rating, Barnyardgrass ([11]; Rate 62 g/ha): 60 | Plant response rating, Barnyardgrass ([11]; Rate 125 g/ha): 70 | Ducksalad plant response rating ([12]; Rate 250 g/ha): 100 | Ducksalad plant response rating ([12]; Rate 500 g/ha): 100 | Plant response rating, Ducksalad ([12]; Rate 62 g/ha): 40 | Plant response rating, Ducksalad ([12]; Rate 125 g/ha): 40 | Rice plant response rating (rice (Oryza saliva); Rate 250 g/ha): 70 | Rice plant response rating (rice (Oryza saliva); Rate 500 g/ha): 80 | Plant response rating, Rice (rice (Oryza saliva); Rate 62 g/ha): 20 | Plant response rating, Rice (rice (Oryza saliva); Rate 125 g/ha): 20 | Flatsedge plant response rating ([13]; Rate 250 g/ha): 100 | Flatsedge plant response rating ([13]; Rate 500 g/ha): 100 | Plant response rating, Flatsedge ([13]; Rate 62 g/ha): 90 | Plant response rating, Flatsedge ([13]; Rate 125 g/ha): 100 | Plant response rating (0 to 100), Nightshade (Nightshade [14]): 100 | Plant response rating, Sunflower (Sunflower): 0
